Reference: patent publication US11154057B2, “Use of nootkatone to treat mosquito infestations” (EVOLVA SA, priority 2016, dated 2021)

Experiments:
Type in all cases: in vivo
Aedes aegypti larvae = assay: Larval bioassay comparing nootkatone with soy oil and mineral oil (Example No. 2); details: FIG. 3
Source text: This example describes a laboratory bioassay in which groups of mosquito larvae were exposed to compositions that contain oils, but not nootkatone, to determine whether larval mortality was due to suffocation by oils in general, or due to a specific property of nootkatone.
One milliliter of a solution of oil in ethanol was applied directly to 100 milliliters of water containing larvae, using a micropipette. One treatment condition used 3% (v/v) soybean oil in ethanol, and a second treatment condition used 3% (v/v) mineral oil in ethanol, for final concentrations of 0.03% (v/v), respectively. One milliliter of pure ethanol was used as a control, and 0.03% (v/v) nootkatone in ethanol was included as a comparison of efficacy. Two replicates of 25 larvae were tested per treatment in clean, glass 600 mL beakers.
Readings were discontinued if treated mortality reached 100%, or control mortality exceeded 20%.

3rd/4th instar larvae = assay: Duration of protection from larvae, Method 1: daily addition of new larval cohorts to treated beakers (Example No. 4)
Description: Method 1: Clean, glass 600 mL beakers were set up as test containers (such that the surface area of water to be treated was 54 cm^2), and were treated with 1 mL of 3% nootkatone in ethanol (v/v), or 1 mL of ethanol alone, as in Example No. 1, to achieve a final concentration of 0.03% nootkatone (v/v). After 24 hours, 100% of larvae were dead in the treated beakers, but 100% were alive in the control beakers, as in Example No. 1. An additional cohort of 25 larvae was added to each treatment beaker in the smallest practical volume of additional water, estimated at 1 mL per beaker. After an additional 24 hours, total live and dead larvae were counted and recorded. Testing continued by addition of new larval cohorts (25 per beaker, per day) for additional 24 hour periods until either there were no available 3rd/4th instar larvae, or until the rate of larval killing decreased.
In two replicate experiments, larvae cohorts were added to test containers in the presence of 0.03% nootkatone, 1% ethanol, starting 24 to 72 hours after addition of nootkatone and ethanol to the test containers (see FIGS. 5 and 6). In the second experiment, additional additional larval replicates were added simultaneously to test containers in the presence of 0.01% nootkatone, 1% ethanol (see FIG. 6).
In a separate experiment with the same experimental set-up, test containers were inoculated with nootkatone in ethanol 48 hours prior to addition of larvae (see FIG. 7). In these experiments, 100% of larvae were killed within 24 hours up to a week after nootkatone treatment. One week after addition of nootkatone, larval mortality was still at 94%.

Aedes aegypti pupae = assay: Efficacy against mosquito pupae (Example No. 6); details: for pupae died within 24 hours: 0.03% nootkatone/1% ethanol
Description: Eggs of Aedes aegypti were purchased from a commercial supplier. Eggs were hatched in sterile MilliQ water and fed with finely ground Tetramin® fish food until they developed into pupae.
Clean, glass 600 mL beakers were washed and thoroughly rinsed prior to use as test containers. On testing days, pupae were removed from dishes used to grow larvae. Replicates of 10 pupae each were randomly assigned to glass beakers in a volume of 100 mL of sterile MilliQ water, and a treatment of nootkatone (see “Treatments” below), or a control treatment of ethanol alone, was added. Three control replicates and 4 treated replicates were tested on one day, and on a second day, two control replicates and four treated replicates were tested. The beakers were then covered lightly with Kimwipes, secured by rubber bands to prevent escape of adults. The beakers were observed after 24 hours, and the numbers of live pupae, dead pupae, live adults, and dead adults were recorded.
An aliquot of 1 mL of a 3% solution (w/v) of nootkatone in 100% ethanol was added to treatment beakers to obtain a final concentration of 0.03% nootkatone/1% ethanol. Control beakers received 1 mL of 100% ethanol, to obtain a final concentration of 1% ethanol.

[1] = system: Adult Aedes aegypti mosquitoes; assay: Prevention of adult mosquito egg laying on treated filter papers; fecundity and adult mortality (Example No. 8); details: for Adult mosquito mortality: Affected, mean / Adult mosquito mortality: Dead, mean / Adult mosquito mortality: Knockdown, mean: 1% NK treated filter paper, cage of 100 mosquitoes; for Percent fecundity reduction, average: filter paper treated with 1 mL, dried, versus untreated paper in the same cage of 100 blood fed mosquitoes, triplicate
Description: Adult Aedes aegypti mosquitoes from a laboratory were blood fed and mated. Testing was conducted 2 days after administration of the blood meal to ensure that females were ready to oviposit.
White filter paper was cut to fit Petri dishes 9 cm in diameter, and each paper was treated with 1 mL of ethanol, 1% nootkatone, Formulation ECS-F-#605, or Formulation ECS-F_#607 (see Table No. 5). The filter papers were allowed to dry completely, and two Petri dishes were added to each cage of 100 blood fed mosquitoes, one treated, and one untreated control. A few milliliters of water was added to each Petri dish to provide a suitable egg laying site. […] Each treatment was tested in triplicate.
Female mosquitoes lay a high density of eggs (black spots) on suitable egg laying substrates, such as white filter paper. It was anticipated that either adult females would be repelled from egg laying sites that were treated with nootkatone, or that they would attempt to land and be poisoned by contacting nootkatone on the water surface. The rate of egg laying on the treated surface and the control surface, the presence of any adults found dead on the surface, and the overall mortality rate on a daily basis were recorded, and the average and standard error were calculated versus the untreated controls. […] An unexpected result was that filter papers treated with ethanol alone had 24% more eggs laid than the average of the untreated filter papers in the same cages. […] Photographs of representative filter papers are shown in FIG. 15, 1% nootkatone treatment (left), ethanol-only control (right).

C=C(C)[C@@H]1CCC2=CC(=O)C[C@@H](C)[C@]2(C)C1 [Nootkatone, nootkatone]
larvae killed (Aedes aegypti larvae; 0.03% (v/v) final in water with ethanol, in 24 hours, two replicates of 25 larvae): 100% | effectiveness of killing larvae versus soy oil and mineral oil (Aedes aegypti larvae; 0.03% (v/v), after 24 hr treatment): more effective than either soy oil or mineral oil | mortality rate (3rd/4th instar larvae; 0.01% nootkatone (v/v), 72 hours after application, FIG. 6): about 10% | mortality (3rd/4th instar larvae; 0.01% nootkatone (v/v), larvae added after application, through 48 hours, FIG. 6): 100% | larvae dead (3rd/4th instar larvae; 0.03% nootkatone (v/v), after 24 hours, first cohort): 100% | mortality (3rd/4th instar larvae; 0.03% nootkatone (v/v), larvae added 0, 24, 48, and 78 hours after application, FIG. 5): 100% | mortality (3rd/4th instar larvae; 0.03% nootkatone (v/v), larvae added after application, through 48 hours, FIG. 6): 100% | mortality (3rd/4th instar larvae; 0.03% nootkatone (v/v), through 72 hours after application, FIG. 6): 100% | mortality rates (3rd/4th instar larvae; 0.03% nootkatone (v/v), through one week of treatment, FIG. 7): greater than 90% | larvae killed within 24 hours (3rd/4th instar larvae; 0.03% nootkatone, containers inoculated 48 hours prior to larvae, up to a week after nootkatone treatment, FIG. 7): 100% | larval mortality (3rd/4th instar larvae; 0.03% nootkatone, one week after addition of nootkatone, FIG. 7): 94% | pupae died within 24 hours, average (Aedes aegypti pupae; 0.03% nootkatone/1% ethanol in water, average of two test days, controls 3%, FIG. 12): 94% | pupae died within 24 hours (Aedes aegypti pupae; one experiment): 93% | pupae died within 24 hours (Aedes aegypti pupae; second day of testing): 95% | Adult mosquito mortality: Affected, mean ([1]; 1 day post-exposure): 6.7 per cage | Adult mosquito mortality: Dead, mean ([1]; 1 day post-exposure): 6.7 per cage | Adult mosquito mortality: Knockdown, mean ([1]; 1 day post-exposure): 0.0 per cage | Adult mosquito mortality: Affected, mean ([1]; 2 days post-exposure): 10.7 per cage | Adult mosquito mortality: Dead, mean ([1]; 2 days post-exposure): 10.7 per cage | Adult mosquito mortality: Knockdown, mean ([1]; 2 days post-exposure): 0.0 per cage | total eggs laid on treated papers in 3 cages ([1]; 1% nootkatone in ethanol, versus 700-1100 eggs per cage on untreated papers): 2 eggs | Percent fecundity reduction, average [1]: 99% | Percent fecundity reduction, average ([1]; listed as NK): 99.9%
